Key:
[1] = Solubility of statins in various pH buffers (Example 1)
[2] = Stability testing of statins dissolved in PUFA free acid solvent system at 25° C., 60% RH (Example 5); format: physicochemical
Experimental: The compositions were then mixed until full dissolution was observed, using a magnetic stir bar and sonication for 30-60 second intervals, taking care to maintain a nitrogen headspace over the solution throughout processing. […] Vials were covered with foil to protect from light and stored at 25° C., 60% RH. One vial of each of the three compositions was retrieved at each timepoint for testing. Procedures as listed in the USP Monograph for Omega-3-Acid Ethyl Ester Capsules were followed for measuring quantities of acid value, peroxide value, and absorbance for fats and fixed oils.

[3] = Solubility of statins in omega-3 ethyl ester solvent system, Lovaza fill (Example 3); conditions: sonicated 1 hour, overnight, supernatant by HPLC
[4] = Solubility of statins in PUFA free acid solvent system, HPLC of supernatant (Example 4); format: physicochemical; conditions: 2 mL PUFA free acid solvent; after addition of about 313 mg; before overnight standing
Experimental: For this study, ten vials were prepared such that 5 vials contained 2 mL of Lovaza oil and 5 vials contained 2 mL of PUFA free acid solvent system. About 20 mg of each statin were added to one Lovaza oil vial and to one PUFA free acid solvent system vial. Vials containing the samples were blanketed with nitrogen, then sealed. The vials were then sonicated for 1 hour or until contents appeared clear. After sonication, vials which remained clear received additional 20 mg aliquots of their respective statin and were again blanketed with nitrogen. […] The samples were centrifuged and the supernatant was assayed for the respective statin by HPLC.

CC(C)c1nc(N(C)S(C)(=O)=O)nc(-c2ccc(F)cc2)c1/C=C/[C@@H](O)C[C@@H](O)CC(=O)[O-].CC(C)c1nc(N(C)S(C)(=O)=O)nc(-c2ccc(F)cc2)c1/C=C/[C@@H](O)C[C@@H](O)CC(=O)[O-].[Ca+2] [Rosuvastatin, Rosuvastatin Calcium]
Solubility ([1]; acid phthalate buffer pH 4.0, T = 1 Week): 0.002 | pH of maximal aqueous solubility ([1]; across the tested pH buffers): ~7.0 | Aqueous solubility (in words) ([1]; overall across pH buffers, rosuvastatin at time zero): significant aqueous solubility | Statin in oil, content ([2]; t = 0): 6.481 mg/g | Statin in oil, percent of total ([2]; t = 0): 100% | Statin in oil, content ([2]; t = 1 week): 6.416 mg/g | Statin in oil, percent of total ([2]; t = 1 week): 100% | Statin in oil, content ([2]; t = 2 week): 6.505 mg/g | Statin in oil, percent of total ([2]; t = 2 week): 100% | Initial solubility in PUFA ethyl ester solvent system, Concentration [3]: 1 µg/mL

CC[C@H](C)C(=O)O[C@H]1C[C@H](O)C=C2C=C[C@H](C)[C@H](CC[C@@H](O)C[C@@H](O)CC(=O)O)[C@H]21 [Pravastatin Sodium]
Appearance of vial after repeated statin additions and sonication [4]: still remained clear

CC(C)c1c(C(=O)Nc2ccccc2)c(-c2ccccc2)c(-c2ccc(F)cc2)n1CC[C@@H](O)C[C@@H](O)CC(=O)[O-].CC(C)c1c(C(=O)Nc2ccccc2)c(-c2ccccc2)c(-c2ccc(F)cc2)n1CC[C@@H](O)C[C@@H](O)CC(=O)[O-].[Ca+2] [Atorvastatin, Atorvastatin Calcium]
Statin in oil, content ([2]; t = 0): 8.738 mg/g | Statin in oil, percent of total ([2]; t = 0): 100% | Statin in oil, content ([2]; t = 1 week): 8.275 mg/g | Statin in oil, percent of total ([2]; t = 1 week): 100% | Statin in oil, content ([2]; t = 2 week): 7.839 mg/g | Statin in oil, percent of total ([2]; t = 2 week): 100%
